Experimental findings from publication PMC13316043, “Structural basis of NSD2 degradation via targeted recruitment of SCF-FBXO22” (Nature Communications, 2026) are described below.

In assay [1] the test system is FBXO22-NSD2 PWWP1 ternary complex. The assay is described as follows: Size-exclusion chromatography to monitor ternary complex formation. It is filed as binding, human. The method, then:
Formation of the SCF^FBXO22-UNC10088-NSD2 PWWP1 and SCF^FBXO22-UNC10415667-NSD2 PWWP1 ternary complexes was performed by incubating SKP1-FBXO22, CUL1-RBX1, NSD2 PWWP1, and UNC10088 or UNC10415667 at a 1:1:1:1 molar ratio for 4 h on ice. The SCF^FBXO22-UNC10088-NSD2 PWWP1-BACH1 BTB ternary complex was formed by incubating SKP1-FBXO22, CUL1-RBX1, NSD2 PWWP1, UNC10088, and BACH1 BTB at a 1:1:1:1:1.5 molar ratio for 1 h on ice. The incubated sample was loaded onto a Superdex 200 Increase SD200 column (Cytiva), equilibrated with 20 mM HEPES pH 8, 200 mM NaCl, 1 mM DTT, for size-exclusion chromatography, and fractions containing all subunits of the SCF^FBXO22-Degrader-NSD2 PWWP1 complex were pooled and concentrated. The SCF^FBXO22-UNC10088-NSD2 PWWP1, SCF^FBXO22-UNC10415667-NSD2 PWWP1, and SCF^FBXO22-UNC10088-NSD2 PWWP1-BACH1 BTB complexes were concentrated to 33 µM, 10.9 µM, and 4.1 µM, respectively, and flash frozen. […] In contrast, only the PWWP1 and BTB domains of NSD2 and BACH1, respectively, were used.
FBXO22 WT and variants were incubated on ice with NSD2 PWWP1 and either UNC10088 or UNC10415667 at 5 µM. After 1 h, the samples were centrifuged at 16,060 x g for 10 min at 4 °C. Each sample was examined for C326- and compound-dependent complex formation by comparing the SEC chromatograms and Coomassie-stained SDS-PAGE gels. […] These experiments were performed using a Superdex 200 Increase SD200 column (Cytiva) and 20 mM HEPES pH 8, 200 mM NaCl, 1 mM DTT.

In a further assay the target is T1, His-tagged NSD2 PWWP1 (Homo sapiens, UniProt O96028).
T1 sequence (O96028 211-350): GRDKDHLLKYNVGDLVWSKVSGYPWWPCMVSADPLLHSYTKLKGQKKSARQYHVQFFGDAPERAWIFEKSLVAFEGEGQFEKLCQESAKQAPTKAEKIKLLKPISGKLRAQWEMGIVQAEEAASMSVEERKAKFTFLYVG
The assay is described as follows: TR-FRET cooperativity (competition) assay: displacement of biotinylated NSD2 ligand UNC7096. It is filed as binding. The text has this: Because of the direct interactions observed between FBXO22 and NSD2, we hypothesized that some degree of cooperative binding could facilitate complex stabilization. Therefore, we developed a TR-FRET assay to monitor the interaction between his-tagged NSD2 and a biotinylated NSD2 ligand, UNC7096, that is missing the modality for FBXO22-recruitment (Supplementary Fig. 3D)[20]. Given the positive FRET signal observed when both NSD2 PWWP1 and UNC7096 are present, we used this setup to evaluate the displacement of UNC7096 by UNC10088 in the presence or absence of the FBXO22 FIST domain (Supplementary Fig. 3D). […] Importantly, this FBXO22-dependent enhancement of NSD2 antagonism by UNC10088 was absent when C326 was substituted for alanine (Supplementary Fig. 3F). Taken together, the SCF^FBXO22-NSD2 PWWP1 structure both confirms prior results and provides additional insight into the surfaces that contribute to a cooperative interaction between NSD2 and FBXO22 to promote potent NSD2 polyubiquitination and degradation.
The TR-FRET assay was adapted to assess cooperativity from the following workflows previously reported[39],[40]. Assays were performed in white, low-volume, flat-bottom, nonbinding 384-well microplates (Greiner, Catalog No. 784904) with a final assay volume of 10 μL per well. The assay buffer contained 20 mM Tris–HCl (pH 7.5) and 150mM NaCl, 0.05% Tween-20 (v/v), 2mM DTT, and 1% DMSO (v/v). LANCE Europium (Eu)-W8044 Streptavidin conjugate (2 nM) and LANCE Ultra ULight-anti6x-His labeled antibodies (10 nM) were used as donor and acceptor fluorophores associated with the tracer ligand and protein, respectively. Final assay concentrations of 63 nM His-tagged NSD2 PWWP1 and 31 nM of UNC7096 (a biotinylated version of the NSD2 ligand) as a tracer ligand were used for compound testing. UNC8732, UNC10088, and UNC10415667 were diluted in a 10-point, 3-fold serial dilution, and indicated compounds were pre-incubated with FBXO22 FIST for 30 min. A master mix of NSD2 PWWP1, UNC7096, and TR-FRET reagents was made prior to its addition to the compounds and/or FBXO22 FIST. The plates were sealed with metallic covers, mixed gently for 1 min, and incubated in the dark for 1 h. After 1 h, the plate was read on an EnVision 2103 plate reader with a 320 nm excitation filter and 615 nm/ 665 nm emission filters simultaneously with a dual mirror D400/D630 and a 100 μs delay. […] Raw TR-FRET signals were normalized to a high inhibition control (10 μM of UNC10088) and negative control (1% DMSO). The normalized TR-FRET signals were plotted against the compound concentrations. […] Ki values were calculated from the IC50s using the tight-binding model[41],[42]. The cooperativity factor (α) was calculated as the ratio of Ki (Binary)/ Ki (Ternary), with α > 1 indicating positive cooperativity between NSD2 PWWP1 and FBXO22 FIST based on its disruption of NSD2 binding to UNC7096.
(In general: In TR-FRET formats the signal depends on donor and acceptor labels being close together.)

Setting [2] is: compound alone (buffer, no FBXO22 FIST), tracer UNC7096, read-out: IC50, competitive TR-FRET, binding to NSD2 PWWP1.

Like-named read-outs stand apart in the source and are kept apart here.

In general, IC50 refers to the concentration that gives 50% inhibition. Take `O=C1COc2cc(C(=O)N(Cc3ccc(C(=O)Nc4ccc5c(c4)CCN(C(=O)CCCCC(O)S(=O)(=O)O)C5)cc3)C3CC3)ccc2N1` (stereo not shown) [UNC10088]: the “ternary complex formation between FBXO22 and NSD2 PWWP1 by SEC” value in assay [1] is on record as “co-migrated together”. For the same compound, the IC50 came to 227 ± 10 nM at His-tagged NSD2 PWWP1 (FBXO22 FIST C326A variant present, read-out: IC50, competitive TR-FRET, in the presence of C326A FIST); 108 nM on His-tagged NSD2 PWWP1 (FBXO22 FIST present, reagents not preincubated, read-out: IC50, competitive TR-FRET, in the presence of FBXO22 FIST without preincubation); 101 ± 8 nM at His-tagged NSD2 PWWP1 (WT FBXO22 FIST present, compound pre-incubated with FIST 30 min, read-out: IC50, competitive TR-FRET, in the presence of FBXO22 FIST); 248 ± 22 nM on His-tagged NSD2 PWWP1 (setting [2]).
As for `O=Cc1ccc(C(=O)N2CCc3cc(NC(=O)c4ccc(CN(C(=O)c5ccc6c(c5)OCC(=O)N6)C5CC5)cc4)ccc3C2)cc1` [UNC10415667], in assay [1], the “ternary complex formation between FBXO22 and NSD2 PWWP1 by SEC” value was “stable complex”. The IC50 on His-tagged NSD2 PWWP1 (setting [2]) stood at 159 ± 24 nM.
